Laboratory results from patent US9650371B2, “Sulfur-containing heterocyclic derivative having beta secretase inhibitory activity” (Shionogi & Co., Ltd., priority 2008, dated 2017).

Target: human ether-a-go-go related gene (hERG) channel (Homo sapiens (Human), UniProt Q12809)
Test: hERG test
Assay type: cell-based
Settings: HEK293 cells expressing hERG, whole cell patch clamp, 10 minutes
Text: For the purpose of assessing risk of an electrocardiogram QT interval prolongation, effects on delayed rectifier K+ current (IKr), which plays an important role in the ventricular repolarization process, was studied using HEK293 cells expressing human ether-a-go-go related gene (hERG) channel.
After a cell was retained at a membrane potential of −80 mV by whole cell patch clamp method using an automated patch clamp system (PatchXpress 7000A, Axon Instruments Inc.), IKr induced by depolarization pulse stimulation at +50 mV for 2 seconds and, further, repolarization pulse stimulation at −50 mV for 2 seconds was recorded. […] From the recording IKr, an absolute value of the tail peak current was measured based on the current value at the resting membrane potential using an analysis software (DataXpress ver.1, Molecular Devices Corporation). Further, the % inhibition relative to the tail peak current before application of the test substance was calculated, and compared with the vehicle-applied group (0.1% dimethyl sulfoxide solution) to assess influence of the test substance on IKr.

Sequence of human ether-a-go-go related gene (hERG) channel (Q12809 whole entry): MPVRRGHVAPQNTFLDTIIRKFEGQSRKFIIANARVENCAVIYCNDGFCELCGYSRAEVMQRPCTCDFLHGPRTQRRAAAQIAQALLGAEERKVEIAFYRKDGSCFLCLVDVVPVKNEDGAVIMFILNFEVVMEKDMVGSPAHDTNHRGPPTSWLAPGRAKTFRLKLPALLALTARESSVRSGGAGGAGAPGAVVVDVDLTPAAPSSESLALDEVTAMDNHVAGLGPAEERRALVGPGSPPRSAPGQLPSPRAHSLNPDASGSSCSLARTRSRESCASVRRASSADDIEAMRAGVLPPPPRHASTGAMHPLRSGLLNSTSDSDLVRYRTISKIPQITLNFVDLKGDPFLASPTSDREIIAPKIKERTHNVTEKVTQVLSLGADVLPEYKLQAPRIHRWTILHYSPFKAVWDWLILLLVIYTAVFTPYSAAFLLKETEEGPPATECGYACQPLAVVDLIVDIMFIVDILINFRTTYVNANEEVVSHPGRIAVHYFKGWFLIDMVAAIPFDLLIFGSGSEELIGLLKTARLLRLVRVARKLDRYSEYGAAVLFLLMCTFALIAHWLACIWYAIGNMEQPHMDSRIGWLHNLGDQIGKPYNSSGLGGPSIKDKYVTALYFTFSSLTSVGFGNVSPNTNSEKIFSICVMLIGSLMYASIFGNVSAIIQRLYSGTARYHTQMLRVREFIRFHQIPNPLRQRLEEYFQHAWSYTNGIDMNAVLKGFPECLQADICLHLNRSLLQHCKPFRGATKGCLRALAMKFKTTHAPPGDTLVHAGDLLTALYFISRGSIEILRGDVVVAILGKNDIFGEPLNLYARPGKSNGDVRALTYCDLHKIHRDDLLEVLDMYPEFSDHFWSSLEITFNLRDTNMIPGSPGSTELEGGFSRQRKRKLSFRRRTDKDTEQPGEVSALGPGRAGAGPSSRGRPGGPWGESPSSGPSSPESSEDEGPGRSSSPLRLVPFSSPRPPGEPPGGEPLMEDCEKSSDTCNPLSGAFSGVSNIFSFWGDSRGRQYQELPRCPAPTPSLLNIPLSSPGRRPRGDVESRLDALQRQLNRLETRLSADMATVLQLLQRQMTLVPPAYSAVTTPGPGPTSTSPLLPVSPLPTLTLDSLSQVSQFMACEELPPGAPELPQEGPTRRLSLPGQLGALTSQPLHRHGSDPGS

Compound | % inhibition of tail peak current (IKr)
CNC(=O)c1ccc(-c2ccc(F)c([C@]3(C)C=CSC(N)=N3)c2)cn1 [Compound 92] | 7.9%
C=C1C[C@@](C)(c2cc(NC(=O)c3cnc(OC)cn3)cnc2C)N=C(N)S1 [Compound 102] | 2.3%
